Source: US6818146B2, “Chemical base for engine coolant/antifreeze with improved thermal stability properties” (Shell Oil Company, priority 2001, dated 2004)
Read-outs that look alike come from different tables or passages of the source.

What was measured:
Physical property data = assay type: physicochemical
[1] = Toxicity LD50 data and review of MSDS
ASTM D1177 freeze point = assay type: physicochemical
From the text: FIG. 1 illustrates the aqueous solution freeze point characteristics of the 1,3-propanediol and GM 6043 (EG). […] This could be an indication that actual protection against hard, damaging freezing is actually better, approaching the effective protection point of the EG-based product. […] We feel that the antifreeze properties of the chemistry are acceptable. Indeed a 50% solution would provide adequate protection against freezing in most geographies. TC in FIG. 1 is an internal designation for the PDO aqueous solutions at 50, 55, and 60 volume percent PDO.

[2] = Extended aging / oxidation comparison on D-4340 rig at 150° C.; assay type: physicochemical; details: 150° C. for 60 Days, two fully formulated coolant inhibition packages
[3] = 25° C.; cited from earlier work

Row | Compound | Specific Gravity, 20° C. (Physical property data) | Viscosity (Physical property data) [cP] | Toxicity [1] | State at the reported freeze point (ASTM D1177 freeze point) | Degradation in terms of pH value and formation of oxidation by-products [2] | Specific Gravity, 20° C. (Physical property data; 20° C.) | Viscosity (Physical property data; 20° C.) [cP] | Thermal Conductivity [3] [BTU/hr-ft-F]
1 | OCCO [EG, ethylene glycol] | 1.115 | 17 |  |  |  |  |  | 
2 | OCCCO [PDO, 1,3-propanediol] |  |  | PDO offers low | soft and slushy | PDO degraded less | 1.0526 | 52 | 
3 | CC(O)CO (stereo not shown) [PG, propylene glycol] |  |  |  |  |  | 1.032 | 49 | 0.119
